pIC50: −log10 of the molar value.
Legend:
[1] = molecular target: T1, 1-deoxy-D-xylulose 5-phosphate reductoisomerase (Escherichia coli K-12, UniProt P45568); experiment: Inhibition of recombinant Escherichia coli DXR
T1 sequence (P45568 whole entry): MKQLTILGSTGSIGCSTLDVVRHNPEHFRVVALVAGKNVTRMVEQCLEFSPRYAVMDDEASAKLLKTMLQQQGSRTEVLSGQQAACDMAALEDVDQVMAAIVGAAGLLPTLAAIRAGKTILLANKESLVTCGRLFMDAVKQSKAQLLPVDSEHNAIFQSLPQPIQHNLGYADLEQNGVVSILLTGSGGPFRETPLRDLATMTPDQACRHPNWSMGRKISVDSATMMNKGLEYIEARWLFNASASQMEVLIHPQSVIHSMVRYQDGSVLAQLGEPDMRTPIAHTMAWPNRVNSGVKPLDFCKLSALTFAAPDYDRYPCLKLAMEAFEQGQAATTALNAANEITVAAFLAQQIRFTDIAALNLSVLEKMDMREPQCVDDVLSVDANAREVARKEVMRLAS

Plasmodium falciparum [2] = experiment: Antimalarial activity against Plasmodium falciparum Dd2; assay type: functional, organism-based
Plasmodium falciparum [3] = experiment: Antimalarial activity against Plasmodium falciparum 3D7; assay type: functional, organism-based

Row | SMILES | pIC50 [1] | pIC50 (Plasmodium falciparum [2]) | pIC50 (Plasmodium falciparum [3])
1 | CC(=O)N(O)CCC(c1ccccc1)P(=O)(O)O (stereo not given) | – | 6.46 | 6.26
2 | CC(=O)N(O)CCC(c1ccc(C)cc1)P(=O)(O)O (stereo not given) | 6.40 | 6.66 | 6.02
3 | CC(=O)N(O)CCC(c1ccc(Cl)cc1)P(=O)(O)O (stereo not given) | 7.00 | 7.02 | 6.46
4 | COc1ccc(C(CCN(O)C(C)=O)P(=O)(O)O)cc1 (stereo not given) | 6.34 | 6.57 | 6.07
5 | O=CN(O)CCCP(=O)(O)O [FOSMIDOMYCIN] | – | 6.44 | 5.96
6 | CC(=O)N(O)CCCP(=O)(O)O [FR-900098] | 7.52 | 6.74 | 6.49

Second part, the compound after the results:

Row | pIC50 [1] | pIC50 (Plasmodium falciparum [2]) | pIC50 (Plasmodium falciparum [3]) | SMILES
7 | 7.23 | 7.55 | 7.05 | O=CN(O)CCC(c1ccc(Cl)c(Cl)c1)P(=O)(O)O (stereo not given)
8 | 6.92 | 7.05 | 6.60 | CC(=O)N(O)CCC(c1ccc(Cl)c(Cl)c1)P(=O)(O)O (stereo not given)
9 | 6.81 | 6.70 | 6.44 | COc1ccc(C(CCN(O)C=O)P(=O)(O)O)cc1 (stereo not given)

Reference: ChEMBL document CHEMBL1146140 (Bioorg Med Chem Lett, 2006)
